Earlier results in US9107837B2, “Sustained release formulation of naltrexone” (Orexigen Therapeutics, Inc., priority 2006, dated 2015).

Conditions: open label, approximately 570 individuals with alcoholism

Which “New-onset adverse reaction: anxiety” value does the source give for `O=C1CC[C@@]2(O)[C@H]3Cc4ccc(O)c5c4[C@@]2(CCN3CC2CC2)[C@H]1O5` [naltrexone, 17-(cyclopropylmethyl)-4,5α-epoxy-3,14-dihydroxymorphinan-6-one] here?
The value was 2%.

What about the “New-onset adverse reaction: dizziness” value of the same molecule?
The value was 4%.

And the “New-onset adverse reaction: fatigue” value?
Its value is 4%.

And the “New-onset adverse reaction: headache” value?
The value was 7%.

What about the “New-onset adverse reaction: insomnia” value of the same molecule?
Its value is 3%.

What about the “New-onset adverse reaction: nausea” value of the same molecule?
The value was 10%.

What about the “New-onset adverse reaction: nervousness” value of the same molecule?
The value was 4%.

And the “New-onset adverse reaction: somnolence” value?
The value was 2%.

What about the “New-onset adverse reaction: vomiting” value of the same molecule?
The value was 3%.
